# In patent publication US11840686B2, “Modulation of prekallikrein (PKK) expression” (Ionis Pharmaceuticals, Inc., priority 2013, dated 2023):
# Strand notation (5' to 3'): a small letter for the sugar, then the base; units joined by * are phosphorothioate-linked, units joined directly phosphodiester-linked; [ ] holds rarer units or linkages, { } end groups; capitals alone tell only the bases. e = 2'-O-(2-methoxyethyl) (MOE); [5mC] = 5-methylcytosine; d = 2'-deoxy (DNA)
# Test system: human PKK mRNA
# Experiment: Antisense inhibition of human PKK mRNA in HepaRG cells, 5,000 nM (Example 2)
# Assay type: cell-based
# Conditions: approx. 24 hours
# How it was run: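 HepaRG cells (20,000/well) electroporated with 5,000 nM MOE gapmer (phosphorothioate backbone, 5-methylcytosines) and harvested after ~24 h. PKK mRNA measured by qRT-PCR with primer probe set RTS3454, normalized to RIBOGREEN total RNA; percent inhibition versus untreated cells.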
# [1] = Table 8, HepaRG cells, electroporation with 5,000 nM antisense oligonucleotide, PKK mRNA by RT-PCR (RTS3454), relative to untreated control cells
# [2] = Table 9 experiment, HepaRG cells, 20,000 cells per well, electroporation with 5,000 nM antisense oligonucleotide, PKK mRNA by RT-PCR (RTS3454), relative to untreated control cells
# [3] = Table 10 experiment, HepaRG cells, 20,000 cells per well, electroporation with 5,000 nM antisense oligonucleotide, PKK mRNA by RT-PCR (RTS3454), relative to untreated control cells
Substance,% inhibition [1] [%],% inhibition [2] [%],% inhibition [3] [%],"% inhibition (HepaRG cells, electroporation, 5,000 nM antisense oligonucleotide, primer probe set RTS3454, relative to untreated control cells, Table 11) [%]"
547439 (antisense eT*e[5mC]*eT*eG*eA*dG*d[5mC]*dT*dG*dT*d[5mC]*dA*dG*d[5mC]*dT*eT*e[5mC]*eA*e[5mC]*e[5mC]) [compound 547439],85,–,–,–
547440 (antisense eT*e[5mC]*e[5mC]*eT*eA*dT*dG*dA*dG*dT*dG*dA*d[5mC]*d[5mC]*d[5mC]*eT*e[5mC]*e[5mC]*eA*e[5mC]) [compound 547440],67,–,–,–
547441 (antisense eG*eG*eT*eG*eT*d[5mC]*d[5mC]*dT*dA*dT*dG*dA*dG*dT*dG*eA*e[5mC]*e[5mC]*e[5mC]*eT) [compound 547441],62,–,–,–
547442 (antisense eT*eG*eG*eT*eG*dT*d[5mC]*d[5mC]*dT*dA*dT*dG*dA*dG*dT*eG*eA*e[5mC]*e[5mC]*e[5mC]) [compound 547442],42,–,–,–
547443 (antisense e[5mC]*e[5mC]*eA*e[5mC]*eT*dG*dG*dT*dG*dT*d[5mC]*d[5mC]*dT*dA*dT*eG*eA*eG*eT*eG) [compound 547443],70,–,–,–
547444 (antisense e[5mC]*eT*eA*eT*eA*dG*dA*dT*dG*d[5mC]*dG*d[5mC]*d[5mC]*dA*dA*eA*e[5mC]*eA*eT*e[5mC]) [compound 547444],71,–,–,–
547446 (antisense eT*eT*eG*eT*eG*dA*dG*dA*dA*dA*dG*dG*dT*dG*dT*eA*eT*e[5mC]*eT*eT) [compound 547446],84,–,–,–
547447 (antisense eA*eT*eT*eT*eG*dT*dG*dA*dG*dA*dA*dA*dG*dG*dT*eG*eT*eA*eT*e[5mC]) [compound 547447],80,–,–,–
547448 (antisense eT*eT*eA*eT*eT*dT*dG*dT*dG*dA*dG*dA*dA*dA*dG*eG*eT*eG*eT*eA) [compound 547448],–,75,83,–
547449 (antisense eT*eT*eT*eT*eA*dT*dT*dT*dG*dT*dG*dA*dG*dA*dA*eA*eG*eG*eT*eG) [compound 547449],–,71,73,–
547450 (antisense e[5mC]*eT*e[5mC]*eT*eT*dT*dT*dA*dT*dT*dT*dG*dT*dG*dA*eG*eA*eA*eA*eG) [compound 547450],–,71,67,–
547451 (antisense eT*eT*eG*eG*eT*dG*dA*dA*dT*dA*dA*dT*dA*dA*dT*e[5mC]*eT*e[5mC]*eT*eT) [compound 547451],–,75,64,–
547452 (antisense eG*eT*eT*eT*eT*dG*dG*dT*dG*dA*dA*dT*dA*dA*dT*eA*eA*eT*e[5mC]*eT) [compound 547452],–,47,62,–
547458 (antisense eT*eA*eT*e[5mC]*eA*dA*dG*dG*d[5mC]*dG*dA*dT*dA*dT*d[5mC]*eA*eT*eG*eA*eT) [compound 547458],–,84,64,–
547459 (antisense eG*eA*eG*eT*eT*dT*dT*dA*dT*d[5mC]*dA*dA*dG*dG*d[5mC]*eG*eA*eT*eA*eT) [compound 547459],–,28,51,–
547460 (antisense e[5mC]*eT*eG*eG*eA*dG*dT*dT*dT*dT*dA*dT*d[5mC]*dA*dA*eG*eG*e[5mC]*eG*eA) [compound 547460],–,72,75,–
547461 (antisense eG*eT*eA*eA*eT*dT*d[5mC]*dA*dA*dA*dG*dG*dA*dG*d[5mC]*e[5mC]*eT*eG*eG*eA) [compound 547461],–,49,55,–
547462 (antisense eG*eT*eG*eT*eA*dA*dT*dT*d[5mC]*dA*dA*dA*dG*dG*dA*eG*e[5mC]*e[5mC]*eT*eG) [compound 547462],–,59,54,–
547463 (antisense eT*eA*eG*eG*e[5mC]*dA*dT*dA*dT*dT*dG*dG*dT*dT*dT*eT*eT*eG*eG*eA) [compound 547463],–,74,84,–
547465 (antisense eA*eA*eA*eT*eT*dG*dT*dG*d[5mC]*dT*dT*dG*dT*dG*dT*e[5mC]*eA*e[5mC]*e[5mC]*eT) [compound 547465],–,88,85,–
547466 (antisense eG*eT*eA*eT*eA*dA*dA*dT*dT*dG*dT*dG*d[5mC]*dT*dT*eG*eT*eG*eT*e[5mC]) [compound 547466],–,82,43,–
547467 (antisense eT*eG*eG*eT*eA*dT*dA*dA*dA*dT*dT*dG*dT*dG*d[5mC]*eT*eT*eG*eT*eG) [compound 547467],–,80,65,–

Substance,% inhibition [1] [%],% inhibition [2] [%],% inhibition [3] [%],"% inhibition (HepaRG cells, electroporation, 5,000 nM antisense oligonucleotide, primer probe set RTS3454, relative to untreated control cells, Table 11) [%]"
547468 (antisense eG*eT*eT*eG*eG*dT*dA*dT*dA*dA*dA*dT*dT*dG*dT*eG*e[5mC]*eT*eT*eG) [compound 547468],–,61,46,–
547469 (antisense eT*eT*eA*e[5mC]*e[5mC]*d[5mC]*dA*dA*d[5mC]*dA*dG*dT*dT*dG*dG*eT*eA*eT*eA*eA) [compound 547469],–,67,50,–
547470 (antisense eT*e[5mC]*eG*eA*eG*dA*dA*dG*d[5mC]*d[5mC]*d[5mC]*d[5mC]*dA*dT*d[5mC]*e[5mC]*eG*eG*eT*eT) [compound 547470],–,70,68,–
547471 (antisense e[5mC]*e[5mC]*eT*eT*eT*d[5mC]*dT*d[5mC]*d[5mC]*dT*dT*d[5mC]*dG*dA*dG*eA*eA*eG*e[5mC]*e[5mC]) [compound 547471],–,58,43,–
547472 (antisense eT*e[5mC]*eA*e[5mC]*e[5mC]*dT*dT*dT*d[5mC]*dT*d[5mC]*d[5mC]*dT*dT*d[5mC]*eG*eA*eG*eA*eA) [compound 547472],–,44,42,–
547473 (antisense eT*eT*eT*eG*eG*dA*dT*dT*dT*d[5mC]*dA*d[5mC]*d[5mC]*dT*dT*eT*e[5mC]*eT*e[5mC]*e[5mC]) [compound 547473],–,5,26,–
547474 (antisense eT*eG*eT*eA*eG*dA*dA*dT*dA*dT*dT*dT*dT*dG*dG*eA*eT*eT*eT*e[5mC]) [compound 547474],–,51,34,–
547475 (antisense eT*eT*eT*eG*eT*dT*dA*d[5mC]*d[5mC]*dA*dA*dA*dG*dG*dA*eA*eT*eA*eT*eT) [compound 547475],–,44,42,–
547476 (antisense e[5mC]*eA*eT*eT*eT*dG*dT*dT*dA*d[5mC]*d[5mC]*dA*dA*dA*dG*eG*eA*eA*eT*eA) [compound 547476],–,75,71,–
547477 (antisense eT*e[5mC]*eT*eT*e[5mC]*dA*dT*dT*dT*dG*dT*dT*dA*d[5mC]*d[5mC]*eA*eA*eA*eG*eG) [compound 547477],–,74,68,–
547478 (antisense e[5mC]*eA*eT*eT*e[5mC]*dT*dT*d[5mC]*dA*dT*dT*dT*dG*dT*dT*eA*e[5mC]*e[5mC]*eA*eA) [compound 547478],–,85,55,–
547479 (antisense eT*eA*eT*eA*eA*dT*d[5mC]*dT*dT*dG*dA*dT*dA*dT*d[5mC]*eT*eT*eT*eT*e[5mC]) [compound 547479],–,48,9,–
547480 (antisense eT*eT*e[5mC]*eT*eT*dT*dA*dT*dA*dG*d[5mC]*d[5mC]*dA*dG*d[5mC]*eA*e[5mC]*eA*eG*eA) [compound 547480],–,60,49,–
547481 (antisense e[5mC]*e[5mC]*eT*eT*e[5mC]*dT*dT*dT*dA*dT*dA*dG*d[5mC]*d[5mC]*dA*eG*e[5mC]*eA*e[5mC]*eA) [compound 547481],–,71,77,–
547482 (antisense e[5mC]*e[5mC]*e[5mC]*e[5mC]*eT*dT*d[5mC]*dT*dT*dT*dA*dT*dA*dG*d[5mC]*e[5mC]*eA*eG*e[5mC]*eA) [compound 547482],–,90,65,–
547484 (antisense e[5mC]*eT*eA*eA*eG*dG*dG*dA*d[5mC]*d[5mC]*dA*d[5mC]*d[5mC]*dT*dG*eA*eA*eT*e[5mC]*eT) [compound 547484],–,69,64,–
547485 (antisense e[5mC]*eA*eA*eA*e[5mC]*dT*dA*dA*dG*dG*dG*dA*d[5mC]*d[5mC]*dA*e[5mC]*e[5mC]*eT*eG*eA) [compound 547485],–,49,66,–
547486 (antisense eT*eG*e[5mC]*eA*eA*dA*d[5mC]*dT*dA*dA*dG*dG*dG*dA*d[5mC]*e[5mC]*eA*e[5mC]*e[5mC]*eT) [compound 547486],–,89,78,–
547487 (antisense eT*eG*eT*eG*eT*dT*dT*dG*d[5mC]*dA*dA*dA*d[5mC]*dT*dA*eA*eG*eG*eG*eA) [compound 547487],–,72,61,–
547488 (antisense eA*e[5mC]*eA*e[5mC]*e[5mC]*dA*dG*dG*dT*dT*dG*d[5mC]*dT*d[5mC]*d[5mC]*e[5mC]*eT*eG*e[5mC]*eG) [compound 547488],–,71,72,–
547489 (antisense eA*eG*eA*e[5mC]*eA*d[5mC]*d[5mC]*dA*dG*dG*dT*dT*dG*d[5mC]*dT*e[5mC]*e[5mC]*e[5mC]*eT*eG) [compound 547489],–,–,–,34
